According to article PMC9728921, “Characterization of a KDM5 small molecule inhibitor with antiviral activity against hepatitis B virus” (PLOS ONE, 2022):

Tests used:
KDM3B = KDM3B (Homo sapiens, UniProt Q7LBC6); experiment: KDM3B enzymatic assay (AlphaLISA); assay type: biochemical
Experimental: (§1) The following assay protocol was used for all histone demethylases tested except KDM1A, KDM5A, B, and D, which are described below. Compounds were serially diluted into a 384-well Alpha plate as a DMSO solution and mixed with 5 μL reaction buffer (buffer A) containing 50 mM HEPES (pH 7.0), 0.1% BSA, and 0.003% Tween-20. The enzyme of interest was pre-incubated with 15 μM of Fe^2+ for 10 min (except 30 min for KDM2B) in reaction buffer A. 5 μL of the enzyme mixture was added to each of the compound-containing wells and incubated for 10 min. The reaction was started by addition of a 5 μL mixture containing 300 nM peptide substrate, 75 μM L-ascorbic acid, and 30 μM α-ketoglutarate in buffer A. This final 15 μL of reaction mixture was incubated for 20 min for KDM5B and 1 hour for the other KDM enzymes. The reaction was quenched with 10 μL of diluted AlphaLISA Acceptor beads (1:400) in Epigenetics Buffer and incubated for 60 min. The Donor beads were diluted 1:400 into Epigenetics Buffer in the dark and 10 μL of this was added to each well and incubated for another 60 min in the dark. The assay plates were read on an Enspire plate reader (PerkinElmer) using a standard AlphaLISA program.
(§2) Data was analyzed using GraphPad Prism 6.0 (La Jolla, CA). […] IC50 values were calculated as an average of at least two independent experiments.

[1] = Cell-associated GS-080 exposure and half-life in PHH (LC-MS); assay type: in vitro ADME, human
Experimental: PHH were infected with HBV for three days prior to initiation of GS-5801 treatment. PHH were dosed with vehicle or 1 µM GS-5801once for three days (three day exposure; continuous dosing) or once for two hours (two hour exposure; pulse dosing). […] (C) Pharmacokinetic parameters calculated included the half-life (t1/2), maximum concentration (Cmax), and area under the curve (AUClast).

KDM7B = KDM7B (Homo sapiens, UniProt Q9UPP1); experiment: KDM7B enzymatic assay (AlphaLISA); assay type: biochemical
KDM7B, sequence (Q9UPP1 whole entry): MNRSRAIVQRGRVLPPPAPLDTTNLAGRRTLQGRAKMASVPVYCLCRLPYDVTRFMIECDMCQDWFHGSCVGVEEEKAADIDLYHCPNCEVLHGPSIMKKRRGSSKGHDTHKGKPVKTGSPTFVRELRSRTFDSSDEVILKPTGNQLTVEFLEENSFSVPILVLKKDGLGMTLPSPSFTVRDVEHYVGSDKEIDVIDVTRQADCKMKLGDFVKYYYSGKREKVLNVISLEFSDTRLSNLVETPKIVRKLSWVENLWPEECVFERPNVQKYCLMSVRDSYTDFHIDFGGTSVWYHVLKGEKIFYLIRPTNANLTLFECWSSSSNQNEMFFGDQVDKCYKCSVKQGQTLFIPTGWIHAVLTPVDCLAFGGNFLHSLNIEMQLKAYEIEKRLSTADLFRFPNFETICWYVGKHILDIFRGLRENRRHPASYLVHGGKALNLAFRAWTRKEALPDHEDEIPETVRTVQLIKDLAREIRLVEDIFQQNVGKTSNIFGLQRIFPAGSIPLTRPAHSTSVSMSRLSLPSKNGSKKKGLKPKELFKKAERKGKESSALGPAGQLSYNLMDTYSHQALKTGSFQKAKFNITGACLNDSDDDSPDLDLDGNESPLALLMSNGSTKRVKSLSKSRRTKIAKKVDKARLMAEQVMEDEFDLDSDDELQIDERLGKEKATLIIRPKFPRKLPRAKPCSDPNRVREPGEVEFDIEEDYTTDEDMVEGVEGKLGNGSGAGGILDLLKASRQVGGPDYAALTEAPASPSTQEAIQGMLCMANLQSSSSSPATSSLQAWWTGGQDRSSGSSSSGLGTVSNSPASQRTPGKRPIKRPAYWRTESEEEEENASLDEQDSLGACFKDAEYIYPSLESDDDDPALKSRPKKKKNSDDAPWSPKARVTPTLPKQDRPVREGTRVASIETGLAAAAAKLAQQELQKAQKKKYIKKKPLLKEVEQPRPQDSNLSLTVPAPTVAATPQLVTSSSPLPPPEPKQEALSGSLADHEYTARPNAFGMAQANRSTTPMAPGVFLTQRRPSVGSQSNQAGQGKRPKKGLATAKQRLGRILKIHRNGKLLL
Experimental: as §1, §2

HMT or HDAC enzymes = experiment: Panel of HMT and HDAC enzymes; assay type: biochemical; conditions: no measurable inhibitory activity; read-out: IC50 against any of the HMT or HDAC enzymes tested
Experimental: Histone methyltransferase assays were performed in 96-well half-area optiplates (PerkinElmer) at room temperature. All concentrations are final unless noted otherwise. Compounds were serially diluted in DMSO and the final DMSO concentration was 1%. […] The plate was sealed, mixed on a Titramax plate shaker at 1200 rpm for 30 sec, and incubated at room temperature for 60 min. […] The plate was sealed, mixed as previously noted, incubated overnight, and read on a TopCount plate reader (PerkinElmer). The HDAC-1 histone deacetylase assay was tested using the FLUOR DE LYS platform ([…]). Inhibition of SIRT-1 histone deacetylase was tested with the AlphaLISA detection system. All assays were conducted at room temperature with a final DMSO concentration of 1%. […] After a 60-minute incubation, the reaction was quenched with 10 μL AlphaLISA H3K4-specific Acceptor beads (1:200) in Epigenetics Buffer, and the reaction mixture was incubated for 60 min. The Donor beads were diluted 1:200 into Epigenetics Buffer in the dark and 10 μL of this mixture was added to each well and incubated for another 60 min in the dark. The assay plates were read on an Enspire plate reader (PerkinElmer) using a standard AlphaLISA program. […] Data was analyzed using GraphPad Prism 6.0 (La Jolla, CA). […] IC50 values were calculated as an average of at least two independent experiments.

KDM4C = KDM4C (Homo sapiens, UniProt Q9H3R0); experiment: biochemical
KDM4C, sequence (Q9H3R0 whole entry): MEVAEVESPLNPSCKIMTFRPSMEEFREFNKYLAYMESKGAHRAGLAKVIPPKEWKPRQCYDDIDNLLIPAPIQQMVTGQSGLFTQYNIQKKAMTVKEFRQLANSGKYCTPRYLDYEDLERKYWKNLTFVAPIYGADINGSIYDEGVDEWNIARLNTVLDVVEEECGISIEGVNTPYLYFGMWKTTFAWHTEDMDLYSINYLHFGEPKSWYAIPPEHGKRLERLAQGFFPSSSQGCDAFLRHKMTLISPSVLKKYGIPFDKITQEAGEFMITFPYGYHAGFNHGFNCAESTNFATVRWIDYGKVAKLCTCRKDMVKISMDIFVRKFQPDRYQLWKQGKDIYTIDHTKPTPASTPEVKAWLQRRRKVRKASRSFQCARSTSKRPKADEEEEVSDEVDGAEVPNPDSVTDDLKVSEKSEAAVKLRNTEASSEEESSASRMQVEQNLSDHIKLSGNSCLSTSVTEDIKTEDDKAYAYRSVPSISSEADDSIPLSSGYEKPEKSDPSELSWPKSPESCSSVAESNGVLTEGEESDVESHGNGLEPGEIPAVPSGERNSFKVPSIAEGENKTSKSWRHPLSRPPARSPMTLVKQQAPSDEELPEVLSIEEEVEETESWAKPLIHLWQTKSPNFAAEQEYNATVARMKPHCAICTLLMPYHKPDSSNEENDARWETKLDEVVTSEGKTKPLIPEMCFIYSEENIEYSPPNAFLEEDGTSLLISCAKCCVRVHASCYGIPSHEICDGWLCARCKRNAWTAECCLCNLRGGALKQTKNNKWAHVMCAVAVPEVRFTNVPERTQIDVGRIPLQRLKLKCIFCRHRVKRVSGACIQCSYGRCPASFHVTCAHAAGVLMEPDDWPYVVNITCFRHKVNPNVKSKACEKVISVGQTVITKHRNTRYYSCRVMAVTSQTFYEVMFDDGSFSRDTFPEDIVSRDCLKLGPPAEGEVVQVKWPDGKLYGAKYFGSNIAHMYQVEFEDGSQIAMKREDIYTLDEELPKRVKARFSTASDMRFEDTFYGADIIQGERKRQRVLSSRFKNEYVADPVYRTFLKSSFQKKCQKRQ
Experimental: as §1, §2

NSD1 = biological target: T1, NSD1 (Homo sapiens, UniProt Q96L73); experiment: Histone methyltransferase enzymatic assay, NSD1; assay type: biochemical; conditions: enzyme conc. 50 nM
T1 construct: 1538-2696; purchased RBC (read as Reaction Biology Corporation, named)
T1 sequence (Q96L73 1538-2696): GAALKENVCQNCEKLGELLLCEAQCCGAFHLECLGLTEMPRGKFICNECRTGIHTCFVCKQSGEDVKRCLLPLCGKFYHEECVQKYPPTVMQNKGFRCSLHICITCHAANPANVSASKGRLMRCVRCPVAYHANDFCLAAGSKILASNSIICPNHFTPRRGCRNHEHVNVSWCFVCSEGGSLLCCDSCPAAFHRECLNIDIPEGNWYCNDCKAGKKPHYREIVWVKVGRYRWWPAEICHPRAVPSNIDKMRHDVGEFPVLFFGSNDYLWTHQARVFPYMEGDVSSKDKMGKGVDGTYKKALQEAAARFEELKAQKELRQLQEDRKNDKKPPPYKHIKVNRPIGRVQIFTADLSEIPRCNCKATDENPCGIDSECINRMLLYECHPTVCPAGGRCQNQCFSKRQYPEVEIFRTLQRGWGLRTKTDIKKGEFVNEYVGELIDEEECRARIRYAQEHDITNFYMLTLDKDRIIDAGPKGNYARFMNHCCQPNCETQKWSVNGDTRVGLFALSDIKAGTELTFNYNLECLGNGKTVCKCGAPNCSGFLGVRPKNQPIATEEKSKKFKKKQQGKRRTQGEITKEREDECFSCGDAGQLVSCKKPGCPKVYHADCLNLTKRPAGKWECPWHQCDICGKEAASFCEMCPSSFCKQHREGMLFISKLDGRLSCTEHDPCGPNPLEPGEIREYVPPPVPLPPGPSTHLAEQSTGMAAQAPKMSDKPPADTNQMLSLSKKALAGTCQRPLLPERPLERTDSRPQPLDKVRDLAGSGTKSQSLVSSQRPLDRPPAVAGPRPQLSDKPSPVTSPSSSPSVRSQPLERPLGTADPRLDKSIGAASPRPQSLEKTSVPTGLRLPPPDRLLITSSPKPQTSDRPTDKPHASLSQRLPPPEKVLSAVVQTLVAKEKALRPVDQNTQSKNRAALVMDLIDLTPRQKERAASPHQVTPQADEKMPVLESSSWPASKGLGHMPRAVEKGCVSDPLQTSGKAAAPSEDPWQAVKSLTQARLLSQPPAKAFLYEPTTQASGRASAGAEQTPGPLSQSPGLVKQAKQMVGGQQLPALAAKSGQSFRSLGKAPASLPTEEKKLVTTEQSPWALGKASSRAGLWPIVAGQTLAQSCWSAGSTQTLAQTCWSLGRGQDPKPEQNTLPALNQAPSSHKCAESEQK
Experimental: (§3) Histone methyltransferase assays were performed in 96-well half-area optiplates (PerkinElmer) at room temperature. All concentrations are final unless noted otherwise. Compounds were serially diluted in DMSO and the final DMSO concentration was 1%. A 24 μL reaction mixture contained compound, enzyme, 200 nM of nucleosome or histone substrate, 400 nM ^3H-SAM (83.1 Ci/mmol), 50 mM Tris-HCl (pH 8.0), 50 mM NaCl, 5 mM MgCl2, 1 mM DTT, and 0.01% Tween-20. The plate was sealed, mixed on a Titramax plate shaker at 1200 rpm for 30 sec, and incubated at room temperature for 60 min. The reaction was quenched by addition of 24 μL mixture containing 5 mg/mL PVT-PEI beads and 300 μM unlabeled SAM in water. The plate was sealed, mixed as previously noted, incubated overnight, and read on a TopCount plate reader (PerkinElmer).
as §2

EZH2/EED/SUZ12 = biological target: T2, EZH2/EED/SUZ12 (Homo sapiens, UniProt O75530+Q15022+Q15910); experiment: Histone methyltransferase enzymatic assay, EZH2/EED/SUZ12; assay type: biochemical; conditions: enzyme conc. 100 nM
T2 construct: 2-746/2-441/2-739; purchased BPS
Experimental: as §3, §2

[2] = Liver to plasma AUC ratio, rat; assay type: in vivo, Sprague Dawley rats; conditions: male, Sprague Dawley, liver and plasma, po, 1 mg/kg, read-out: GS-080 liver to plasma AUC ratio
Experimental: Rats and monkeys were dosed by oral gavage once with 1 mg/kg or 2.5 mg/kg, respectively. The rat study included a vehicle control group (water). Serial venous blood samples were taken at 0, 0.25, 0.5, 1, 2, 4, 6, 8, 12, and 24 hours post dose from each animal and collected into vacutainer tubes containing potassium oxalate/sodium fluoride (Thermo Fisher; BD367925) as the anti-coagulant and blood was centrifuged for plasma isolation. […] For monkey, liver samples were taken by biopsy at pre-dose, 1, 4, 24, 48, and 72 hours post dose (n = 2 per time point). Rat and monkey livers were weighed and immediately flash frozen in liquid nitrogen.
500 μL of cold HPLC grade water was added to each monkey liver biopsy sample and rat liver samples were diluted 3-fold with cold HPLC grade water. Diluted liver samples were homogenized between 1 and 3 minutes. 50 μL of plasma samples and homogenized liver samples were quenched with 200 μL of 0.05% formic acid in acetonitrile. […] An Agilent 1200 series binary pump (Santa Clara, CA; G1312A) was used for elution and separation of compounds with a Hypersil Gold C18 HPLC column (Thermo Fisher; 50 x 3.0 mm, 5 μm) over 6.75 minutes with 99–3% gradient of Mobile Phase A (1% acetonitrile in 2.5 mM ammonium formate aqueous solution pH 2.6) and 1–97% gradient Mobile Phase B (90% acetonitrile in aqueous 10 mM ammonium formate pH 6.8).

DOT1L = biological target: T3, DOT1L (Homo sapiens, UniProt Q8TEK3); experiment: Histone methyltransferase enzymatic assay, DOT1L; assay type: biochemical; conditions: enzyme conc. 2 nM
T3 construct: 1-416; BRIC
Experimental: as §3, §2

KDM3B, sequence (Q7LBC6 whole entry): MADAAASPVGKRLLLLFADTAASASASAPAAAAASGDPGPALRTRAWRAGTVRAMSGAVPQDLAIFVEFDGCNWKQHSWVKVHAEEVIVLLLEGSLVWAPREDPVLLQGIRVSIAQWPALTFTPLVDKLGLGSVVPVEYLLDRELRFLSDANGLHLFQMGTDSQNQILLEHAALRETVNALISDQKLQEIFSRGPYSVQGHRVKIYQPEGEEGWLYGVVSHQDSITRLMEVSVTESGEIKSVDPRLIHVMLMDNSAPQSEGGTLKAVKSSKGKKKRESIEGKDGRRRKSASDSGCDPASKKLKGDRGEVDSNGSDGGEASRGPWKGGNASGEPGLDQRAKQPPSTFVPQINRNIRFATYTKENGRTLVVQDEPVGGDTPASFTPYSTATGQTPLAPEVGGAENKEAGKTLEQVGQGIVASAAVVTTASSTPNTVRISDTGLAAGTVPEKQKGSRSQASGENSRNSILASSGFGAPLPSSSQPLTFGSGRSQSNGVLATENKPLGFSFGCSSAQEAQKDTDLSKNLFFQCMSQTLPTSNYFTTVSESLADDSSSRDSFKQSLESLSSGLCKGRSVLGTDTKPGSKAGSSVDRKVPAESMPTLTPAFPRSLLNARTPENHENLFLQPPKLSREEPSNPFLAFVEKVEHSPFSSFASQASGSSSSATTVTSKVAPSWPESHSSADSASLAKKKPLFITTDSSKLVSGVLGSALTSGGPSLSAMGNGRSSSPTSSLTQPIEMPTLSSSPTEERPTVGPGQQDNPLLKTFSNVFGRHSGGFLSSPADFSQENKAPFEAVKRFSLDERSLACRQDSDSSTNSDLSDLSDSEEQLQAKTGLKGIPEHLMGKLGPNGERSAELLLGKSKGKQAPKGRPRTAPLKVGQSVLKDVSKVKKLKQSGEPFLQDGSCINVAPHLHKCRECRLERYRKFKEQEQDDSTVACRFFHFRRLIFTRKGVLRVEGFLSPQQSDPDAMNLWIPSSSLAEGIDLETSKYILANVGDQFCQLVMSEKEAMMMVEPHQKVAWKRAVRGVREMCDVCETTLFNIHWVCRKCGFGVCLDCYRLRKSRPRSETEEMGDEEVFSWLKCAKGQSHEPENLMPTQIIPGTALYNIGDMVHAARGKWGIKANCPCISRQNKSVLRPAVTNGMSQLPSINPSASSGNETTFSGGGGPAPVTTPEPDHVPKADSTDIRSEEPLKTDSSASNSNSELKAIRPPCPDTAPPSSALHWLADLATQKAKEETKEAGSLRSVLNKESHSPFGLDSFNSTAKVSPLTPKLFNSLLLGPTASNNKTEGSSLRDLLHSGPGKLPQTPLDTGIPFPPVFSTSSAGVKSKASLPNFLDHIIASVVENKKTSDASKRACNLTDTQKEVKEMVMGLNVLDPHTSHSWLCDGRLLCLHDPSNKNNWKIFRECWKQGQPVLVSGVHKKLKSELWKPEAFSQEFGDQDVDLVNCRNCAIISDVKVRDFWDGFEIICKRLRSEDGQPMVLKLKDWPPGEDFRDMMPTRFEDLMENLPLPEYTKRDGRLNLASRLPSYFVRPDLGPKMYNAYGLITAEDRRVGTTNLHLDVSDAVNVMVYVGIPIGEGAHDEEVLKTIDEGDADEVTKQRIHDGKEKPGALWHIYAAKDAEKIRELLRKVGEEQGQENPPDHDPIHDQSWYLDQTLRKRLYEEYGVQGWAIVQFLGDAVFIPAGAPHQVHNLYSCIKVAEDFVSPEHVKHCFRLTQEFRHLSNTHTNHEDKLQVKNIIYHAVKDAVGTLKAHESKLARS

CCN(CCN(C)C)C(=O)CNCc1cc(C(=O)O)ccn1 [GS-080]
Fold Selectivity Compared to KDM5A (KDM3B; IC50 of KDM3B over KDM5A): > 27,800 fold
IC50 (KDM3B; enzyme concentration 0.1 nM): > 10 µM
cell-associated GS-080 Cmax and AUClast, pulse compared to continuous dosing ([1]; PHH dosed with 1 µM GS-5801, two-hour pulse vs three day exposure): two-fold lower Cmax and AUClast values
half-life at 1 µM ([1]; human, primary human hepatocytes (PHH), cell-associated, PHH, 1 uM, uninfected PHH): 42 to 66 h
Fold Selectivity Compared to KDM5A (KDM7B; IC50 of KDM7B over KDM5A): > 1,110 fold
IC50 (KDM7B; enzyme concentration 2.5 nM): 0.4 µM
IC50 (HMT or HDAC enzymes): > 100 µM
IC50 (KDM4C): 0.0048 µM
Fold Selectivity Compared to KDM5A (KDM4C; IC50 of KDM4C over KDM5A): 13 fold
IC50 (NSD1): > 100 µM
IC50 (EZH2/EED/SUZ12): > 100 µM
Kp [2]: 44
IC50 (DOT1L): > 100 µM
